From ChEMBL document CHEMBL3988442, “University of Dundee, Small-Polar-MMV Screening Library” (2021)
Several values for one entry are separate records, joined by “and”; a condition that tells them apart may be missing. Equal entries are not always repeated.

Each compound was assayed against T1, Coenzyme A biosynthesis bifunctional protein CoaBC (Mycobacterium tuberculosis (strain ATCC 25618 / H37Rv), UniProt P9WNZ1) (assay: Biomol Green assay for MtCoaBC inhibitor, OD650 read).
T1 sequence (P9WNZ1 whole entry): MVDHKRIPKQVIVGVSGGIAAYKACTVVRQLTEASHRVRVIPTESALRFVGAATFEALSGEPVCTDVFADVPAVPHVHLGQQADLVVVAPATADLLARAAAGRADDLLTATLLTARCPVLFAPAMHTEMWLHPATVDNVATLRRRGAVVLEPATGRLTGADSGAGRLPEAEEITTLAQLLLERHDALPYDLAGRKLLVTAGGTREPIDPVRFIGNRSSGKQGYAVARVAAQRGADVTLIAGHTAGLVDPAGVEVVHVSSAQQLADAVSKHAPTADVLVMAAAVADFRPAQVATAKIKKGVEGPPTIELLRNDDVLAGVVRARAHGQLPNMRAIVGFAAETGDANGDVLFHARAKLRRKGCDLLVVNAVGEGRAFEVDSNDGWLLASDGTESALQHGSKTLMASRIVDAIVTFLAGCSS
Assay type: functional

Row | Compound | IC50
1 | Cc1nc(N2CCC(CN3CCCC3)CC2)c2cnn(C)c2n1 | > 30.2 µM
2 | CC1COCCN1C(=O)Cc1cc(Cl)c2c(c1)OCCO2 (centres undefined) | > 30.2 µM
3 | O=C1CCC2(CCN(Cc3cscn3)CC2)CN1CC1CCCO1 (centres undefined) | > 30.2 µM
4 | Cc1csc(CN2CCC[C@]3(C[C@H](Oc4ccccn4)CO3)C2)n1 | > 30.2 µM
5 | Cc1cc(C(=O)N[C@H](C)c2onc(-c3cccnc3)c2C(=O)O)c(C)o1 | > 30.2 µM
6 | COCC(=O)N1CCC(Oc2cccc(C)c2)CC1 | > 30.2 µM
7 | CCc1nccn1-c1nccnc1C1CCN(C(=O)COC)CC1 | > 30.2 µM
8 | NC(=O)CC1CCN(S(=O)(=O)c2cnn(-c3ccccc3)c2)CC1 | > 30.2 µM
9 | CCCNC(=O)NC(C)c1ccccn1 (centres undefined) | > 30.2 µM
10 | O=C([C@H]1C[C@@H]2CCN(c3cccc(F)c3)C[C@H]2O1)N1CCCC1 | > 30.2 µM
11 | Cc1cccc(-c2cc(C(=O)O)sn2)c1 | > 50.1 µM
12 | Cc1nnc(CN(C)S(=O)(=O)c2ccc(Br)cc2Cl)n1C | > 30.2 µM
13 | CC(C)c1ncc2c(n1)CN(Cc1nc(-c3ccccn3)no1)CC2 | > 30.2 µM
14 | CCn1ncc2c1NC(=O)CC2c1cnc(-c2ccccn2)nc1 (centres undefined) | > 30.2 µM
15 | Cc1cc(CN2CCOC(CNc3cccnn3)C2)no1 (centres undefined) | > 30.2 µM
16 | Cc1n[nH]c(C)c1NC(=O)CN1CCN(c2nccs2)C(C)C1 (centres undefined) | > 30.2 µM
17 | CCn1ccnc1CNCc1ccc(C)cc1OC(C)(C)C | > 30.2 µM
18 | Cc1cc(C)nc(N2CCCC(C(=O)Nc3n[nH]c(C(C)C)n3)C2)n1 (centres undefined) | > 30.2 µM
19 | Cn1cc(CN2CCCC(c3nccnc3-c3cccc(F)c3)C2)cn1 (centres undefined) | > 30.2 µM
20 | COc1cc(O)cc2c1C(=O)CC(c1ccc(O)cc1)O2 (centres undefined) | > 30.2 µM
21 | CS(=O)(=O)c1ccc(CN2C[C@H]3CC[C@@H]2CN(c2ncccn2)C3)cc1 | > 30.2 µM
22 | Cc1nn(C)c(C)c1C1CCCN1C(=O)c1cnc2onc(C)c2c1 (centres undefined) | > 30.2 µM
23 | O=C(CCC1CCN(C2CCSCC2)CC1)NCC1CCCO1 (centres undefined) | > 30.2 µM

Row | Compound | IC50
24 | Cc1csc(CCNCc2cnc3c(c2)c(C)nn3C)n1 | > 30.2 µM
25 | CC(C)N1CCC(NC(=O)c2cn(-c3ccc(F)cc3)nn2)C1 (centres undefined) | > 30.2 µM
26 | COc1ccc(CC(=O)Nc2ccc3ncn(C(C)C)c(=O)c3c2)cc1 | > 30.2 µM
27 | Cc1cccc(NC(=O)NC2CCC3(C2)OCCO3)c1Cl (centres undefined) | > 30.2 µM
28 | OC(CN1CCC(c2ccn[nH]2)CC1)c1ccc(F)cc1F (centres undefined) | > 30.2 µM
29 | COc1ccc(NC2CCCN(Cc3cnc(N(C)C)s3)C2)cc1OC (centres undefined) | > 30.2 µM
30 | O=C1c2c(O)cc(O)cc2O[C@@H](c2ccc(O)cc2)[C@@H]1O | > 30.2 µM
31 | Cn1cnc2cc(NC(=O)c3n[nH]c4c3CCC4)ccc21 | > 30.2 µM
32 | COc1ccccc1CNC(=O)CS(=O)(=O)Cc1ccccc1 | > 30.2 µM
33 | CN(Cc1ccccc1)C(=O)Cn1nc(N2CCOCC2)ccc1=O | > 30.2 µM
34 | CCC[C@@H]1CN(Cc2c[nH]nc2-c2ccc(OC)cc2)C[C@H]1NC(C)=O | > 30.2 µM
35 | Cc1nnc2n1CC(CNCc1nc(-c3cccs3)no1)CC2 (centres undefined) | > 30.2 µM
36 | CCc1ncc(C(=O)NCC2CCN(Cc3ccncc3)CC2)cn1 | > 30.2 µM
37 | FC(F)(F)c1cccnc1N1CCC(OC2CCOCC2)CC1 | > 30.2 µM
38 | O=c1cc(C2CCNCC2)nc(CCc2ccccn2)[nH]1 | > 30.2 µM
39 | CCn1cc(Cl)c(C(=O)NCCCN(C)C)n1 | > 30.2 µM
40 | NC(=O)CN1CCC(NC(=O)COCCOc2ccccc2)CC1 | > 30.2 µM
41 | Cc1noc([C@@H]2C[C@H](NS(=O)(=O)Cc3ccccc3)CN2C)n1 | > 30.2 µM
42 | Cc1ccc(C)c(CC(=O)NC2(C#N)CCOCC2)c1 | > 30.2 µM
43 | Cc1cccc(CN2C[C@@H](F)[C@@H](OCc3nc4ccccc4[nH]3)C2)n1 | > 30.2 µM
44 | CCc1nnc(SCc2nonc2C)n1C1CC1 | > 30.2 µM
45 | CCc1cnc(CN(C)C2CCN(CCCNS(C)(=O)=O)C2)o1 (centres undefined) | > 30.2 µM
46 | O=C(c1cccnc1SC/C=C/c1ccccc1)N1CCOCC(O)C1 (centres undefined) | > 30.2 µM

Row | Compound | IC50
47 | CC(C)C1CN(C(=O)c2cn3cc(Cl)cnc3n2)CCCN1CC1CC1 (centres undefined) | > 30.2 µM
48 | CCC(c1ccncc1)N(C)S(C)(=O)=O (centres undefined) | > 30.2 µM
49 | CCn1cc(CN2CCC(c3ncc(Cl)cc3S(C)(=O)=O)CC2)c(C)n1 | > 30.2 µM
50 | COCCC(Cc1cccc(Br)c1)C(=O)O (centres undefined) | > 50.1 µM
51 | COC(=O)C(C)CN(C)S(=O)(=O)c1c(Br)cc2[nH]c(=O)oc2c1Cl (centres undefined) | > 30.2 µM
52 | Cc1csc(CN2CCC(C(=O)O)(n3ccc(-c4ccco4)n3)CC2)n1 | > 30.2 µM
53 | CC(C)c1nc(CNC2CCN(C(=O)OC(C)(C)C)CC2)cs1 | > 30.2 µM
54 | CN1C(=O)C2(CCN(c3nccc4occc34)CC2)c2ccccc21 | > 30.2 µM
55 | CN1CCOC[C@H]1c1nc(-c2ccc(F)cc2F)c[nH]1 | > 30.2 µM
56 | CCc1ncc2c(n1)CN(Cc1nc(-c3cccs3)no1)CC2 | > 30.2 µM
57 | CC(C)N(CC(C)(C)O)C(=O)NC1CC1 | > 30.2 µM
58 | Cc1ccc(CCCC(=O)N(C)CCN2CCOCC2)cc1 | > 30.2 µM
59 | Cc1ccnc(N2C[C@@H]3CC[C@H](C2)N(CC2CCC2)C3=O)n1 | > 30.2 µM
60 | COc1ccc(-n2cc(CNC(=O)c3cc[nH]n3)nn2)cc1 | > 30.2 µM
61 | CCN1CCCC1CNC(=O)Cc1c(-c2ccc(Cl)cc2)n[nH]c1C (centres undefined) | > 30.2 µM
62 | CC(C)C(NC(=O)NCC1(CO)CC1)c1nnc2n1CCC2 (centres undefined) | > 30.2 µM
63 | COc1cc(CNC2CCc3nc(C)nn3C2)cc2c1OCO2 (centres undefined) | > 30.2 µM
64 | CS(=O)(=O)N1CCN(C(=O)c2cc(-c3ccc(Br)s3)n[nH]2)CC1 | > 30.2 µM
65 | O=C(C1CC1)N1CCC(c2nc(O)c3c(n2)CCN(C2CCCC2)C3)C1 (centres undefined) | > 30.2 µM
66 | NS(=O)(=O)c1cccnc1Nc1c(Cl)cccc1Cl | > 30.2 µM
67 | Cc1cnc(NC(=O)C(C)Oc2ccc3c(c2)OCO3)s1 (centres undefined) | > 30.2 µM
68 | NC(=O)C1CN(C(=O)Nc2ccccc2Oc2ccccc2Cl)CCO1 (centres undefined) | > 30.2 µM
69 | O=C(Nc1ccc(-n2cncn2)nc1)N(CC1CCOC1)C1CC1 (centres undefined) | > 30.2 µM

Row | Compound | IC50
70 | Cc1cs/c(=N\C(=O)Cn2nc(N3CCOCC3)ccc2=O)[nH]1 | > 30.2 µM
71 | Cc1cccc(C(=O)NCC2CCS(=O)(=O)C2)n1 (centres undefined) | > 30.2 µM
72 | Cc1cc(C2CCCN(CCNS(=O)(=O)c3ccccc3)C2)n[nH]1 (centres undefined) | > 30.2 µM
73 | Cc1nn(C)cc1S(=O)(=O)N[C@@H]1CCC[C@@H](N2CCCC2)[C@@H]1O | > 30.2 µM
74 | O=C(NCCc1ccccn1)c1n[nH]c2c1CCC2 | > 30.2 µM
75 | COc1ccccc1N1CCN(CC(=O)NC(C)c2ccco2)CC1 (centres undefined) | > 30.2 µM
76 | Nc1nccnc1CC1CCCN(Cc2c[nH]c3ccccc23)C1 (centres undefined) | > 30.2 µM
77 | O=C(CN1CC(n2cccn2)C1)NCCC1=CCCCC1 | > 30.2 µM
78 | O=C(NCC1CC1)[C@H]1C[C@@H]2CN(S(=O)(=O)Cc3ccccc3)C[C@H]1O2 | > 30.2 µM
79 | CC(NC(=O)Nc1cccnc1N1CCCC1)c1ccn(C)c1 (centres undefined) | > 30.2 µM
80 | CCN1CCCC(O)(CN(C)Cc2ccc(C)o2)C1 (centres undefined) | > 30.2 µM
81 | CC(C)=CCn1ncc(N2CCOCC2)cc1=O | > 30.2 µM
82 | Fc1cccc(-c2nc(CN3CCCC(Cn4cncn4)C3)co2)c1 (centres undefined) | > 30.2 µM
83 | CC(CS(C)(=O)=O)N(C(=O)CCc1cccc(F)c1)C1CC1 (centres undefined) | > 30.2 µM
84 | C1=C(CNC2CCc3ncnn3C2)COc2ccccc21 (centres undefined) | > 30.2 µM
85 | COCCNC(=O)[C@H]1C[C@@H]2CCN(c3ccccc3)C[C@H]2O1 | > 30.2 µM
86 | O=C(CCCC1CCCC1)NS(=O)(=O)CC1CC1 | > 30.2 µM
87 | COCCC(=O)N1CC2(CCN(Cc3ccoc3)C2)C1 | > 30.2 µM
88 | CC1CCN(c2nc(O)cc(C3CC(=O)N(C4CCCCC4)C3)n2)CC1 (centres undefined) | > 30.2 µM
89 | C[S+]([O-])c1nncn1CC(=O)c1ccc(Cl)c(Cl)c1 (centres undefined) | > 30.2 µM
90 | CC(NC(=O)CSCC(N)=O)c1ccc(Oc2ccccc2)cc1 (centres undefined) | > 30.2 µM
91 | O=C(NC1CCCC1)[C@@H]1CN(Cc2nccs2)C[C@H]2OCC[C@H]21 | > 30.2 µM
92 | CCOCC1CN(Cc2ccoc2)Cc2cn(CC3CC3)nc21 (centres undefined) | > 30.2 µM

Row | Compound | IC50
93 | Cc1cnc(C)c(-c2cccc(-c3ccn(CCN4CCCC4)n3)c2)n1 | > 30.2 µM
94 | CC(C)N1CCC(C(=O)N2CCc3c(nc(CC4CC4)[nH]c3=O)C2)CC1 | > 30.2 µM
95 | Cc1cnn(Cc2ccc(NC(=O)N3CCCC3)cc2)c1 | > 30.2 µM
96 | Cc1nc(C2CCCN(C(=O)c3ccc(Cl)cn3)C2)no1 (centres undefined) | > 30.2 µM
97 | CCC(CO)Nc1nc(C(F)F)nc2ccccc12 (centres undefined) | > 30.2 µM
98 | COc1cccc(Cc2nc3c([nH]2)CC(C)(C)CNC3=O)c1OC | > 30.2 µM
99 | O=C(NCCc1ccncc1)[C@H]1C[C@@H]2CCN(c3nncs3)C[C@H]2O1 | > 30.2 µM
100 | O=C(O)COc1ccc(CN2CCCC(CCc3ccccc3)C2)cc1 (centres undefined) | 19.9 µM and 19.6 µM
101 | Cc1cnc2[nH]c(C(F)(F)F)c(CN3CCCC(CO)C3)c2c1 (centres undefined) | > 30.2 µM
102 | CCN(CC)C1CCN(C(=O)NCc2cccc(-n3cccn3)c2)C1 (centres undefined) | > 30.2 µM
103 | O=C(O)C1CCN(c2nc3c(-c4ccccc4F)csc3c(=O)[nH]2)CC1 | > 30.2 µM
104 | Cc1nc(Nc2nnc(C)s2)cc(C2CCCN2C)n1 (centres undefined) | > 30.2 µM
105 | CC(C)NS(=O)(=O)c1cc(C(=O)O)cc(-n2cc3c(n2)CCC3)c1 | > 50.1 µM
106 | CC(O)c1cn(Cc2ccc(Cl)cc2)nn1 (centres undefined) | > 30.2 µM
107 | Cc1nn(C)c(C)c1NC(=O)CN1CCN(c2nccs2)C(C)C1 (centres undefined) | > 30.2 µM
108 | CC(C)COCC(NC(=O)c1cnccn1)c1ccco1 (centres undefined) | > 30.2 µM
109 | CC(C(=O)NC1CC1)n1nc(-c2cccs2)cc(N)c1=O (centres undefined) | > 30.2 µM
110 | Cn1cc(CN2CCCC3(CCN(Cc4ccncc4)C3=O)C2)cn1 (centres undefined) | > 30.2 µM
111 | CC(c1nc(-c2ccccc2)no1)N1CCc2c(ncn2C2CC2)C1 (centres undefined) | > 30.2 µM
112 | COCC1c2nnn(CC3CC3)c2CCN1C(=O)c1cccn1C (centres undefined) | > 30.2 µM
113 | CCOCC1CN(C(=O)C2=CCCC2)Cc2cnn(C)c21 (centres undefined) | > 30.2 µM
114 | Cc1cc(NC(=O)CN2CCc3cnc(C(C)C)nc3C2)on1 | > 30.2 µM
